Test: ex vivo transcutaneous passage
Assay type: in vitro ADME
Details: peau épilée ou rasée de rats, applied as the antiseptic preparation

## O=C(Nc1ccc(Cl)cc1)Nc1ccc(Cl)c(Cl)c1 [principe actif, trichloro-3,4,4′ carbanilide]
  passage transcutané du principe actif: n'ont pas permis de déceler un passage transcutané
